Measured values as given in ChEMBL document CHEMBL3779887, “Robenidine Analogues as Gram-Positive Antibacterial Agents” (J Med Chem, 2016).
In brackets after ≈: the same amount, converted by molar mass.

Columns and labels:
Format in all cases: functional
Enterococcus = experiment: Antibacterial activity against vancomycin-resistant Enterococcus after 20 to 24 hrs
Pseudomonas aeruginosa = experiment: Antibacterial activity against Pseudomonas aeruginosa ATCC 27853 after 20 to 24 hrs
Staphylococcus aureus = experiment: Antibacterial activity against methicillin-resistant Staphylococcus aureus after 20 to 24 hrs
Escherichia coli = experiment: Antibacterial activity against Escherichia coli ATCC 25922 after 20 to 24 hrs

| SMILES | MIC (Enterococcus) [µM] | MIC (Pseudomonas aeruginosa) [µM] | MIC (Staphylococcus aureus) [µM] | MIC (Escherichia coli) [µM] |
| --- | --- | --- | --- | --- |
| CSc1ccc(/C=N/NC(=N)N/N=C/c2ccc(SC)cc2)cc1 | 12.7 (≈ 4.54 µg/mL) | > 400 | 61 (≈ 21.8 µg/mL) | > 400 |
| N=C(N/N=C/c1ccc(C(F)(F)F)cc1)N/N=C/c1ccc(C(F)(F)F)cc1 | 11.4 (≈ 4.57 µg/mL) | > 400 | 36.5 (≈ 14.6 µg/mL) | > 400 |
| N=C(N/N=C/c1cccc(F)c1)N/N=C/c1cccc(F)c1 | 71 (≈ 21.4 µg/mL) | > 400 | 47 (≈ 14.2 µg/mL) | > 400 |
| COc1cccc(/C=N/NC(=N)N/N=C/c2cccc(OC)c2)c1 | 88 (≈ 28.6 µg/mL) | > 400 | 88 (≈ 28.6 µg/mL) | > 400 |
| N=C(N/N=C/c1ccccc1)N/N=C/c1ccccc1 | > 400 | > 400 | > 400 | > 400 |
| N=C(N/N=C/c1ccc(Br)cc1)N/N=C/c1ccc(Br)cc1 | > 400 | > 400 | > 400 | > 400 |
| COc1ccc(/C=N/NC(=N)N/N=C/c2ccc(OC)cc2)cc1 | > 400 | > 400 | > 400 | > 400 |
| N=C(N/N=C/c1ccc(Cl)cc1Cl)N/N=C/c1ccc(Cl)cc1Cl | > 400 | > 400 | > 400 | > 400 |
| Cc1cccc(/C=N/NC(=N)N/N=C/c2cccc(C)c2)c1 | 24.4 (≈ 7.16 µg/mL) | > 400 | 24.4 (≈ 7.16 µg/mL) | > 400 |
